Laboratory results from patent US20240132931A1, “Biological Indicator with Enhanced Volatile Organic Compound Detection” (O&M Halyard, Inc., priority 2022, published 2024).

Key:
[1] = test system: Geobacillus stearothermophilus spores; experiment: VOC production (SPME, GC-MS) during the first 20 minutes of spore germination, growth medium with or without additive (Example 1); type: cell-based
Experimental: Spore suspension of Geobacillus stearothermophilus (1×10^6 CFU/0.1 mL) were diluted to reach a concentration of 500-800 CFU/30-50 μL after being heat shock for 15 min at 95-99° C. to kill all vegetative cell that might have been present in the suspension.
A modified soybean casein digest broth was diluted (10×) with HPLC grade water and sterilize by filtration 0.45 μm to limit the amount of VOC in the background. was used with or without the addition of an additive.
For the VOC testing, 0.5 mL of the sterile diluted growth medium was transferred in each VOC collection vials. The vials were prewarm at 60° C. for at least 10 minutes. Before starting the VOC sampling, the additive was added to the vials, then the spores according to Table 1 in function of the test to be performed. The VOC were sampled by inserting the SPME fiber into the vial as soon as the spores were added, and the vials were put back in the temperature control systems. The SPME fiber use was an assembly Divinylbenzene/Carboxen/Polydimethylsiloxane (DVB/CAR/PDMS) (Sigma Aldrich—product number 57328-U from Supelco) conditioned at 270° C. for 30 minutes before use. The SPME fibers were removed 20 minutes after the addition of the spores and were analyzed using the GC-MS according to the lab protocols for the apparatus.

[2] = test system: Geobacillus stearothermophilus spores; experiment: VOC production (SPME, GC-MS) during the first 15 minutes of spore germination, growth medium with L-threonine or glucose (Example 2); type: cell-based
Experimental: Spore suspension of Geobacillus stearothermophilus (1×10^6 CFU/0.1 mL) were heated for 30 min at 99-100° C. to kill all vegetative cell that might have been present in the suspension.
A growth medium composed of a modified soybean casein digest broth diluted (200×) with the sterilized germination medium (1,0 mM L-valine in 10 mM sodium phosphate buffer (pH 8.0) as described by “thou T, Dong Z, Setlow P, Li Y-q (2013), Kinetics of Germination of Individual Spores of Geobacillus stearothermophilus as Measured by Raman Spectroscopy and Differential Interference Contrast Microscopy. PLoS ONE 8(9): e74987)” was used with or without the addition of L-threonine or glucose at 5 mM. One test was also performed with the germination medium by itself, without the modified soybean casein digest broth diluted (200×) and the additives. The controls included the SPME fiber alone, in the presence of 2500 μg methanol, and growth medium with and without the L-Threonine or glucose.
For the VOC testing, 0.5 mL of the control solution (methanol) or sterile growth medium was transferred in each VOC collection vials. The vials were prewarm at 65° C. for at least 10 minutes. […] The SPME fibers were removed 15 minutes after the addition of the spores and were analyzed using the GC-MS according to the lab protocols for the apparatus.

[3] = GM + spores (about 500-800 CFU) + additive 5 mM, 60° C., 20 minutes

CO[C@H]1O[C@H](CO)[C@@H](O)[C@H](O)[C@H]1O [Additive, Methyl alpha-D-glucopyranoside]
Detection of 1-Nonene, Nonane, 1-Octene, Octane, Heptane ([1]; Example 1): detected only in the presence of the additive
Propene concentration change from the presence of the additive ([1]; Example 1): not increasing
1-butanol intensity in comparison to the growth medium intensity [1, 3]: (+up to 3X)
Acetaldehyde intensity in comparison to the growth medium intensity [1, 3]: to 2X
Formaldehyde intensity in comparison to the growth medium intensity [1, 3]: (+10X)
Nonanal Octanal Heptanal intensity in comparison to the growth medium intensity [1, 3]: (up to 3X)

C[C@@H](O)[C@H](N)C(=O)O [L-threonine]
Formation of common VOC such as 1-nonene ([2]; Example 2): leads to the formation
Butanal produced (qualitative amount) ([2]; GM + 5 mM additive + 5000-10000 spores, 65° C., 15 minutes): <control
